Assay results from paper PMC5295395, “Inhibition of PlexA1-mediated brain tumor growth and tumor-associated angiogenesis using a transmembrane domain targeting peptide” (Oncotarget, 2016).

Columns and labels:
NRP1 TMD = test: surface plasmon resonance (SPR, Biacore) with NRP1 TMD; type: binding; conditions: Biacore 2000, 20°C, streptavidin CM5 chip, 10 mM HEPES pH 7.4, 150 mM NaCl, 0.005% P20, 3 mM LDAO, flow 5 μl/min
Protocol: A surface plasmon resonance (SPR, Biacore) analysis was also conducted with a synthetic biotinylated PlexA1 peptide immobilized on the chip. […] Due to the high hydrophobic nature and difficulty to produce TMD peptides we only performed this experiment with TMD peptides for which we had experience of successful synthesis. […]
assigned to the “highest Plxna1” group and conversely (Abcam, ab32960-100) was added to the sections in those with a Plxna1 expression below the median to the blocking solution at 4°C overnight at a dilution of 1/100.
“lowest Plxna1” group. […]
For the “TCGA dataset” [50, 51], data were The tissue was rinsed with PBS (3 × 5 minutes) and downloaded from the TCGA data portal (https://tcga- then the endogenous peroxidases were blocked with 1% data.nci.nih.gov/tcga/tcgaHome2.jsp; NCI, USA). RMA H2O2 solution (Sigma, #H1009) in methanol solution normalized gene expression profiles measured with during 20 minutes. […]
Factor (recombinant human) 0.1 ng/ml, Basic Fibroblast RNA was treated with DNase I (Invitrogen) and reverse Growth Factor (recombinant human) 1 ng/ml, Heparin 90 transcribed using the High Capacity cDNA RT Kit μg/ml, Hydrocortisone 1 μg / ml. […] Samples were analyzed using […]

[1] = system: tumor-associated blood vessels (CD31); test: CD31 immunostaining of U118MG-Luc xenograft tumor sections; type: in vivo, mouse; conditions: vs control; p = 0.0436, Mann Whitney
Protocol: To address the biological consequences of MTP-PlexA1-mediated inhibition of PlexA1 we used the U118MG-Luc glioma cell line genetically engineered to express the luciferase reporter gene. […] Cells were then grafted subcutaneously and tumor growth was monitored every 5 days for a total period of 20 days. […] The quantitative analysis of the cumulated luminescent signal acquired all along the protocol confirmed the strong reduction of tumor development translating into a marked 75% reduction of the averaged luminescent signal at the end point (Figure 6C). […] In order to clarify the mechanism by which MTP-PlexA1 is exerting tumor growth inhibition we collected tumors and analyzed them histologically.
(B) Representative photographs illustrating the kinetic of tumor growth over 20 days in the two experimental groups. […] (D) Waterfall plot of best response representing the percent change in tumor volume of individual treated animals (grey bars, n = 10) compared to the average tumor volume increased determined in the control group (dark bars, n = 10). […] (F) Representative microphotographs and related quantification of PH3 positive cells in tumor slices (G) Representative microphotographs and related quantification of CD31 positive regions in tumor slices (% CD31 per μm² of tumors).

## TLPAIVGIGGGGGLLLLVIVAVLIAYKRK [MTP-PlexA1, synthetic transmembrane peptide mimicking the TMD of PlexA1]
NRP1 TMD
  interaction of immobilized biotinylated PlexA1 TMD peptide with NRP1: significantly interacted with NRP1
[1]
  reduction of tumor-associated blood vessel density (CD31): 11.4%
